Source: ChEMBL document CHEMBL2074366, “Secretion of sparfloxacin from the human intestinal Caco-2 cell line is altered by P-glycoprotein inhibitors” (Antimicrob Agents Chemother, 1998)

Molecular target: ATP-dependent translocase ABCB1 (Homo sapiens, UniProt P08183)
Assay: TP_TRANSPORTER: transepithelial transport (basal to apical) in Caco-2 cells
Assay type: functional, cell-based

ATP-dependent translocase ABCB1, sequence (P08183 whole entry): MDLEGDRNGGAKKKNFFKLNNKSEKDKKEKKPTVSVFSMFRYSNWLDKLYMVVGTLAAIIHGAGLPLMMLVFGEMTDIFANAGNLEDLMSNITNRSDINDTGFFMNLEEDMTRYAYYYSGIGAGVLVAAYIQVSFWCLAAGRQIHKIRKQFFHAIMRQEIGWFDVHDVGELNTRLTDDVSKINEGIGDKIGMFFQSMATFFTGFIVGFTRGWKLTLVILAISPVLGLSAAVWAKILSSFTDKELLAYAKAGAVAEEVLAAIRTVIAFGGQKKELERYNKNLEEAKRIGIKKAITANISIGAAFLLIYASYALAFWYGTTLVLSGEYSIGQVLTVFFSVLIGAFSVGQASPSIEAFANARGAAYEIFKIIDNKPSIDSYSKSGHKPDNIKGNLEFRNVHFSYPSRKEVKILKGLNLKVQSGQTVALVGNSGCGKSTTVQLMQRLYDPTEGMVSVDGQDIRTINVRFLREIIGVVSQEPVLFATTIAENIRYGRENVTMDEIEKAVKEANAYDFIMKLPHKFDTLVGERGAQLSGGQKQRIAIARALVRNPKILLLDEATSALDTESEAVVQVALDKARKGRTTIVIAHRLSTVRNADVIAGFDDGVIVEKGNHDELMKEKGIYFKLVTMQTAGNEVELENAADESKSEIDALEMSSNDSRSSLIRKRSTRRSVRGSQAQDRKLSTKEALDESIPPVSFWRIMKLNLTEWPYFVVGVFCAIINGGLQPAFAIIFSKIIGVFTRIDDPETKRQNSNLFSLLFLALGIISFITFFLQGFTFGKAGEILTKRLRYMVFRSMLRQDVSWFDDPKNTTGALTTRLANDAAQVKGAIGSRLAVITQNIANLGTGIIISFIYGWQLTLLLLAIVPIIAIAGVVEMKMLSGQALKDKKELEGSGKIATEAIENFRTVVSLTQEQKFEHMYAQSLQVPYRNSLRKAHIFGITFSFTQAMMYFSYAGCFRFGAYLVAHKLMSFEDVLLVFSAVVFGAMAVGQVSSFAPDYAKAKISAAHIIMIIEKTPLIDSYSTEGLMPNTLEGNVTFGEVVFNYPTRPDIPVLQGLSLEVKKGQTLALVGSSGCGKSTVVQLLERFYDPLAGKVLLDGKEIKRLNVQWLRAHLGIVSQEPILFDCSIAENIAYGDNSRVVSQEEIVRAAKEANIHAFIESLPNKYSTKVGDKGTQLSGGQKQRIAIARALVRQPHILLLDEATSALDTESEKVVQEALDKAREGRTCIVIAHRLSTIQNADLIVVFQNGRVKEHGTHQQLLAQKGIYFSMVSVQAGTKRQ

Activity: substrate [+]
Compound: C[C@@H]1CN(c2c(F)c(N)c3c(=O)c(C(=O)O)cn(C4CC4)c3c2F)C[C@H](C)N1 [SPARFLOXACIN]
